Consider 20 compounds from patent US5856503A, “Aminoalkyl-substituted benzo-heterocyclic compounds” (Hoffmann-La Roche Inc., priority 1995, dated 1999).

SMILES strings stand for the structures. ≈ marks a conversion by molar mass, not a printed value. Read-outs that look alike come from different tables or passages of the source. Where only a bound is given, the exact number is not on record here.

In one experiment the test system is Candida albicans. As to the kind of experiment: Antifungal activity in vitro, C. albicans (microdilution). The note with it: 27° C. It counts as cell-based. On the procedure: (§1) Antifungal activity in vitro The compounds were tested for antifungal activity against Candida albicans, Cryptococcus neoformans and Aspergillus fumigatus using a microdilution method on microtitre plates (96 wells per plate). Yeast supplemented with 1% glucose and 0.25% di-potassium phosphate was used for the three fungal strains. The fungal cells were inoculated at 3×10^4 CFU (Colony Forming Unit) in […] of medium per well. The medium contained increasing concentrations of test substance. After incubation at 27° C. for 24 or 48 hours the turbidity in each well was measured by a microtitre plate reader. The growth inhibition was calculated in comparison to (without test substance). The IC50 value given in the following Table is the concentration of test substance at which the growth is inhibited by 50%.

For another experiment, the system named is Cryptococcus neoformans. Kind of experiment: Antifungal activity in vitro, C. neoformans (microdilution). It counts as cell-based. The note with it: 48 hours, 27° C., read-out: IC50 for C. neoformans after 48 hours (growth inhibition). On the procedure: as §1
A further experiment has as its system Aspergillus fumigatus. Kind of experiment: Antifungal activity in vitro, A. fumigatus (microdilution). It counts as cell-based. The settings on record: 48 hours, 27° C., read-out: IC50 for A. fumigatus after 48 hours (growth inhibition). Here is the method: as §1
For experiment [1], the target named is T1, human liver microsomal 2,3-oxidosqualene-lanosterol cyclase (OSC) (Homo sapiens, UniProt P48449).
T1 construct: Liver microsomes from a healthy volunteer were prepared in sodium phosphate buffer (pH 7.4); from tissue; host or cells: liver microsomes from a healthy human volunteer
T1 sequence (P48449 1-732): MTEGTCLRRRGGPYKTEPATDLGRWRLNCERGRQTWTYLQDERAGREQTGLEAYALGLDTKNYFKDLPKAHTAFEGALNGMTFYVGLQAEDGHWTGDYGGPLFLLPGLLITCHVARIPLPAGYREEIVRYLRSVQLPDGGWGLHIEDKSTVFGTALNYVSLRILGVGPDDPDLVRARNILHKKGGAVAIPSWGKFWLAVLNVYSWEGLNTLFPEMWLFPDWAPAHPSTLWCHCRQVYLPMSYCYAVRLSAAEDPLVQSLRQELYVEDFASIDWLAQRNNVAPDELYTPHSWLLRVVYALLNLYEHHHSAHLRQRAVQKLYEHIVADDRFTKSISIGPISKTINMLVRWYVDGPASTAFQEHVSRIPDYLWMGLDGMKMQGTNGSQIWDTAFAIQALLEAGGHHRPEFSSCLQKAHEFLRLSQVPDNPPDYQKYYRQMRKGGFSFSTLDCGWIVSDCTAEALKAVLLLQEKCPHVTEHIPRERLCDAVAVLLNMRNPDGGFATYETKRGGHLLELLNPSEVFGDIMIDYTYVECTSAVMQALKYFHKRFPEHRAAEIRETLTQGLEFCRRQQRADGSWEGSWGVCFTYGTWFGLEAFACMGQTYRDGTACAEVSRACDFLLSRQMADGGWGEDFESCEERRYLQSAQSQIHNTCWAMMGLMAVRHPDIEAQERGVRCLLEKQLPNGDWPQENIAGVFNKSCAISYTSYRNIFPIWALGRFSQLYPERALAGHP
Kind of experiment: Inhibition of human liver microsomal 2,3-oxidosqualene-lanosterol cyclase (OSC). The class given is biochemical. The settings on record: for inhibition at 0.1 µM: 100 nM test substance, 1 hour at 37° C., against controls; for IC50: pH 7.4, 1 hour at 37° C., read-out: IC50 (OSC, conversion of MOS into lanosterol). On the procedure: Inhibition of human liver microsomal 2,3-oxidosqualene-lanosterol cyclase (OSC)
Liver microsomes from a healthy volunteer were prepared in sodium phosphate buffer (pH 7.4). The OSC activity was measured in the same buffer which also contained 1 mM EDTA and 1 mM dithiothreitol. The microsomes were diluted to 0.8 mg/ml protein in cold phosphate buffer. Dry [^14 C]R,S-monooxidosqualene (MOS; 12.8 μCi/mmol) was diluted to 20 nCi/μl with ethanol and mixed with phosphate buffer-1% BSA (Bovine Serum Albumin). A stock solution of 1 mM test substance in DMSO was diluted to the desired concentration with phosphate buffer-1% BSA. 40 μl of microsomes were mixed with 20 μl of the solution of the test substance and the reaction was subsequently started with 20 μl of the [^14 C]R,S-MOS solution. The final conditions were: 0.4 mg/ml of microsomal proteins and […] of [^14 C]R,S-MOS in phosphate buffer, pH 7.4, containing 0.5% albumin, DMSO <0.1% and ethanol <2%, in a total volume of 80 μl.
After 1 hour at 37° C. the reaction was stopped by the addition of 0.6 ml of 10% KOH-methanol, 0.7 ml of water and 0.1 ml of hexane:ether (1:1, v/v) which contained 25 μg of non-radioactive MOS and 25 μg of lanosterol as the carrier. After shaking 1 ml of hexane:ether (1:1, v/v) was added to each test tube, these were again shaken and then centrifuged. The upper phase was transferred into a glass test tube, the lower phase was again extracted with hexane:ether and combined with the first extract. The entire extract was evaporated to dryness with nitrogen, the residue was suspended in 50 μl of hexane:ether and applied to a silica gel plate. Chromatographic separation was effected in hexane:ether (1:1, v/v) as the eluent. […] After drying radioactive MOS and lanosterol were observed on the silica gel plate. The ratio of MOS to lanosterol was determined from the radioactive bands in order to determine the OSC inhibition.
The test was carried out on the one hand with a constant test substance concentration of 100 nM and the percentage OSC inhibition against controls was calculated. In addition, the test was carried out with different test substance concentrations and subsequently the IC50 value was calculated, i.e. the concentration required to reduce the conversion of MOS into lanosterol to 50% of the control value.

A short description of experiment [2]: Cholesterol lowering in fat-fed hamsters. The class given is in vivo, Male golden hamsters. The settings on record: 200 μmol (about 70-120 mg/kg/day) in diet, 10 days. Here is the method: Cholesterol lowering in fat-fed hamsters
Male golden hamsters kept individually were pre-treated for 7 days with a diet containing grated coconut (40 cal. % fat). The animals were then divided into groups each comprising 5 animals. During the treatment the animals were maintained on the same diet. Each test substance was firstly homogenized in 9 ml of water and subsequently mixed with the milled diet. The controls received only feed converted into a paste with water. The animals were treated for 10 days with a test substance dosage of 200 μmol (about 70-120 mg/kg/day). Blood samples (200 μl) were removed via the jugular vein under light anaesthesia on the last day of the pretreatment and one day after the last administration of test substance. The plasma cholesterol concentration was determined using a colorimetric enzyme method. The plasma lipoproteins were separated by exclusion chromatography (Hennes et al., Science Tools, 36, 1992, 10-12). The total cholesterol was determined in each fraction using a fluorometric enzyme method (Gamble et al., J. Lipid Res., 19, 1978, 1068-1071) in order to calculate the amount of cholesterol in the LDL and HDL fractions. The activity on plasma cholesterol and LDL and HDL cholesterol, expressed in percent of the control animals, for the products of Examples 8a and 12 is reproduced in the following Table: […]

Take `C=CCN(C)CCCCCCOc1ccc2c(-c3ccc(Br)cc3)nncc2c1` [Example 29a, allyl-[6-[1-(4-bromo-phenyl)-phthalazin-6-yloxy]-hexyl]-methyl-amine]: the IC50 in the experiment on Candida albicans (24 hrs., read-out: IC50 for C. albicans after 24 hrs. (growth inhibition)) was < 0.32 µg/mL; with Candida albicans (48 hrs., read-out: IC50 for C. albicans after 48 hrs. (growth inhibition)) it was 1.1 µg/mL (≈ 2.42 µM); in the experiment with Cryptococcus neoformans, < 0.32 µg/mL; in the experiment with Aspergillus fumigatus, 0.37 µg/mL (≈ 0.814 µM).

In experiment [1], `C=CCN(C)CCCCCCOc1ccc2c(-c3ccc(Br)cc3)nccc2c1` [Example 23, allyl-[6-[1-(4-bromo-phenyl)-isoquinolin-6-yloxy]-hexyl]-methyl-amine] displayed an inhibition at 0.1 µM of 99%. In experiment [2], the “HDL cholesterol (plasma, percent of control animals)” value is -2%; the “LDL cholesterol (plasma, percent of control animals)” value was -23%; the “Total cholesterol (plasma, percent of control animals)” value is -15%.

As to `CN(C[C@@H]1C[C@H]1COc1ccc2c(-c3ccc(Br)cc3)nccc2c1)C1CC1` (racemic) [Example 39, (1RS,2RS)-[2-[1-(4-Bromo-phenyl)-isoquinolin-6-yloxymethyl]-cyclopropylmethyl]-cyclopropyl-methyl-amine], in experiment [1], testing at 0.1 µM gave an inhibition of 83% and the 50% inhibitory concentration (IC50) amounted to 3.6 nM.

`C=CCN(C)CCCCCCOc1ccc2c(-c3ccc(Br)cc3)n[nH]c2c1` [Example 32k, allyl-[6-[3-(4-bromo-phenyl)-1H-indazol-6-yloxy]-hexyl]-methyl-amine] showed an inhibition at 0.1 µM in experiment [1] of 62%.

As for `C=CCN(C)CCCCCCOc1ccc2c(CCC=C(C)C)nn(C)c2c1` [Example 32e, allyl-methyl-[6-[1-methyl-3-(4-methyl-pent-3-enyl)-1H-indazol-6-yloxy]-hexyl]amine], the inhibition at 0.1 µM in experiment [1] was found to be 75%.

For the compound `C=CCN(C)C/C=C/COc1ccc2c(-c3ccc(Br)cc3)nsc2c1` [Example 2a, (E)-allyl-[4-[3-(4-bromo-phenyl)-benzo[d]isothiazol-6-yloxy]-but-2-enyl]-methyl-amine], in experiment [1], 0.1 µM produced 92% inhibition and the 50% inhibitory concentration (IC50) is 1.65 nM.

`C=CCN(C)C/C=C/COc1ccc2c(CCC=C(C)C)nsc2c1` [Example 6, (E)-allyl-methyl-[4-[3-(4-methyl-pent-3-enyl)-benzo[d]isothiazol-6-yloxy]-but-2-enyl]-amine] displayed an inhibition at 0.1 µM in experiment [1] of 62%.

The compound `C=CCN(C)CCCCCCOc1ccc2c(-c3ccc(Br)cc3)nncc2c1` [Example 29, allyl-[6-[1-(4-bromo-phenyl)-phthalazin-6-yloxy]-hexyl]-methyl-amine] yielded an inhibition at 0.1 µM in experiment [1] of 85%.

Regarding `C=CCN(C)CCCCCCOc1ccc2c(c1)OCC=C2c1ccc(Br)cc1` [Example 37, Allyl-[6-[4-(4-bromo-phenyl)-2H-chromen-7-yloxy]-hexyl]-methyl-amine], in experiment [1], 0.1 µM produced 77% inhibition and the IC50 amounted to 24 nM.

Consider `C=CCN(C)C/C=C/COc1ccc2c(c1)CCN=C2c1ccc(Br)cc1` [Example 26, (E)-allyl-[4-[1-(4-bromo-phenyl)-3,4-dihydro-isoquinolin-6-yloxy]-but-2-enyl]-methyl-amine], for which, in experiment [1], the inhibition at 0.1 µM came to 95% and the 50% inhibitory concentration (IC50) was found to be 2.1 nM.

`CSCCN(C)CCCCCCOc1ccc2c(-c3ccc(Br)cc3)nsc2c1` [Example 2b] returned an inhibition at 0.1 µM in experiment [1] of 32%.

On to `C=CCN(C)CCCCCCOc1ccc2c(-c3ccc(Br)cc3)csc2c1` [Example 3, allyl-[6-[3-(4-bromo-phenyl)-benzo[b]thiophen-6-yloxy]-hexyl]methyl-amine], for which, in experiment [1], testing at 0.1 µM gave an inhibition of 99% and the IC50 was determined as 4 nM.

In turn, `C=CCN(C)CCCCCCOc1ccc2c(-c3ccc(Br)cc3)ccnc2c1` [Example 38, Allyl-[6-[4-(4-bromo-phenyl)-quinolin-7-yloxy]-hexyl]-methyl-amine] returned an inhibition at 0.1 µM in experiment [1] of 84%.

For `C=CCN(C)CCCCCCOc1ccc(-c2noc3cc(Br)ccc23)cc1` [Example 14], testing at 0.1 µM in experiment [1] gave an inhibition of 30%.

For `C=CCN(C)C/C=C/COc1cc2c(cc1F)c(-c1ccc(Br)cc1)nn2C` [Example 31, (E)-allyl-[4-[3-(4-bromo-phenyl)-5-fluoro-1-methyl-1H-indazol-6-yloxy]-but-2-enyl]-methyl-amine], in experiment [1], the inhibition at 0.1 µM is 79% and the IC50 is 29 nM.

As to `C=CCN(C)C/C=C/COc1ccc2c(c1)CON=C2c1ccc(Br)cc1` [Example 27, (E)-allyl-[4-[4-(4-bromo-phenyl)-1H-benzo[d][1,2]oxazin-7-yloxy]-but-2-enyl]-methyl-amine], in experiment [1], the inhibition at 0.1 µM stood at 96% and the half-maximal inhibitory concentration (IC50) was 3.7 nM.

`C=CCN(C)C/C=C/COc1ccc2c(-c3ccc(Br)cc3)noc2c1` [Example 12] had an inhibition at 0.1 µM in experiment [1] of 61%.

Take `C=CCN(C)CCCCCCOc1ccc2c(-c3ccc(Br)cc3)ncnc2c1` [Example 33, Allyl-[6-[4-(4-bromo-phenyl)-quinazolin-7-yloxy]-hexyl]-methyl-amine]: in experiment [1], the inhibition at 0.1 µM was found to be 94% and the half-inhibitory concentration (IC50) is 12.3 nM.

The compound `C=CCN(C)C/C=C/COc1ccc2c(CCC=C(C)C)nn(C)c2c1` [Example 32h, (E)-allyl-methyl-[4-[1-methyl-3-(4-methyl-pent-3-enyl)-1H-indazol-6-yloxy]-but-2-enyl]-amine] gave an inhibition at 0.1 µM in experiment [1] of 54%.

`CN(CCCCCCOc1ccc2c(-c3ccc(Br)cc3)nn(C)c2c1)C1CC1` [Example 32i, [6-[3-(4-bromo-phenyl)-1-methyl-1H-indazol-6-yloxy]-hexyl]-cyclopropyl-methyl-amine] had an inhibition at 0.1 µM in experiment [1] of 55%.
